Measured values published in patent publication US12043612B2, “Methods of manufacturing a bifunctional compound, ultrapure forms of the bifunctional compound, and dosage forms comprising the same” (Arvinas Operations, Inc., priority 2020, dated 2024).
Values after ≈ are worked out from the molar mass of the structure shown. Read-outs that look alike come from different tables or passages of the source.

How the values were obtained:
[1] = Solubility of Compound A in solvents at 24° C. ± 3° C., 24 h; type: physicochemical; conditions: organic solvent or mixture, thermodynamic from solid
Experimental: This batch was prepared for use in the 28-day good laboratory practice (GLP) toxicology studies using the same synthetic scheme and processing employed in preparation of active pharmaceutical ingredient (API) to be used in the clinical drug product.

[2] = Rat pharmacokinetic studies with solutions and spray-dried dispersions; conditions: rats; solutions containing solubilizers and precipitation inhibitors

## N#Cc1ccc(O[C@H]2CC[C@H](NC(=O)c3ccc(N4CCC(CN5CCN(c6cc7c(cc6F)C(=O)N(C6CCC(=O)NC6=O)C7=O)CC5)CC4)nn3)CC2)cc1Cl (stereo partly drawn) [Compound A, N-[(1r,4r)-4-(3-chloro-4-cyanophenoxy)cyclohexyl]-6-[4-({4-[2-(2,6-dioxopiperidin-3-yl)-6-fluoro-1,3-dioxo-2,3-dihydro-1H-isoindol-5-yl]piperazin-1-yl}methyl)piperidin-1-yl]pyridazine-3-carboxamide]
[1]; Acetonitrile, read-out: Solubility, Conc. (mg/mL), 24 h
  solubility at 24 h: 0.79 mg/mL (≈ 973 µM)
[1]; Dichloromethane, read-out: Solubility, Conc. (mg/mL), 24 h
  solubility at 24 h: 25.1 mg/mL (≈ 30900 µM)
[1]; Dichloromethane/methanol, read-out: Solubility, Conc. (mg/mL), 24 h
  solubility at 24 h: 100 mg/mL (≈ 123000 µM)
[1]; Ethanol, read-out: Solubility, Conc. (mg/mL), 24 h
  solubility at 24 h: 0.08 mg/mL (≈ 98.5 µM)
[1]; Ethyl acetate, read-out: Solubility, Conc. (mg/mL), 24 h
  solubility at 24 h: 0.2 mg/mL (≈ 246 µM)
[1]; Methanol, read-out: Solubility, Conc. (mg/mL), 24 h
  solubility at 24 h: 0.29 mg/mL (≈ 357 µM)
[1]; Polyethylene glycol-300, read-out: Solubility, Conc. (mg/mL), 24 h
  solubility at 24 h: 2.8 mg/mL (≈ 3450 µM)
[1]; Propylene glycol, read-out: Solubility, Conc. (mg/mL), 24 h
  solubility at 24 h: 0.75 mg/mL (≈ 923 µM)
[2]
  exposure versus dose: Dose-linear exposure escalation
